SMILES strings stand for the structures.

Chain of α7 nAChR (Rattus norvegicus, UniProt Q05941) (Q05941 23-502): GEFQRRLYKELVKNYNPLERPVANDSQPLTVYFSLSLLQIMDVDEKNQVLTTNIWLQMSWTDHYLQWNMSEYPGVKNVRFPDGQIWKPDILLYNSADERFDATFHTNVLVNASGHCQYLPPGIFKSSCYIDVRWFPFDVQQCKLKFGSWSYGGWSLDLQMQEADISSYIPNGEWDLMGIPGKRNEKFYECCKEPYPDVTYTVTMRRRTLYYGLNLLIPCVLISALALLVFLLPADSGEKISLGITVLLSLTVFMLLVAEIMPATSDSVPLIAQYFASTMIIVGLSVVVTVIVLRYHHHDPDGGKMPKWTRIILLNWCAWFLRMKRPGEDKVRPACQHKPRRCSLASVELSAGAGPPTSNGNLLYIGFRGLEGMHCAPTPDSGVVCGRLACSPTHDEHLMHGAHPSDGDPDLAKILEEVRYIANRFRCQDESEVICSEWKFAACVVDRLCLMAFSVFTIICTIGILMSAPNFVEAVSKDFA

The target of the first assay is T1, 5HT3R (Homo sapiens, UniProt P46098).
T1 sequence (P46098 24-478): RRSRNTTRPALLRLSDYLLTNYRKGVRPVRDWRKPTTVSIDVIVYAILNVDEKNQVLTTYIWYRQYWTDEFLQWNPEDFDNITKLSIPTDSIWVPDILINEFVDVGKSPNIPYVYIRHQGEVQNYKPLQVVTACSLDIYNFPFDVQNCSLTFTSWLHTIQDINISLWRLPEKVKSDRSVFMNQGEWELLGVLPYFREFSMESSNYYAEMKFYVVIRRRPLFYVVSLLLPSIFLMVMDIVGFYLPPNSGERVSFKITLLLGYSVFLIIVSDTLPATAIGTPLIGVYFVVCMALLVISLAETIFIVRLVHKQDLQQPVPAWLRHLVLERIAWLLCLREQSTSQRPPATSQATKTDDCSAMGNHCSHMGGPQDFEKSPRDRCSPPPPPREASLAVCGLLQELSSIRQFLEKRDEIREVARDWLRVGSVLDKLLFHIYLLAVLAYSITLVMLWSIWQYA
Experiment: not given
The conditions noted are these: cited from earlier work.
Consider `COc1ccc(/C=C2\CCCN=C2c2cccnc2)c(OC)c1` [GTS-21], for which the “activity at the 5HT3R” value is listed as “little activity”.

A further assay deals with α7 nAChR (Homo sapiens, UniProt P36544).
Chain of α7 nAChR (Homo sapiens, UniProt P36544) (P36544 23-502): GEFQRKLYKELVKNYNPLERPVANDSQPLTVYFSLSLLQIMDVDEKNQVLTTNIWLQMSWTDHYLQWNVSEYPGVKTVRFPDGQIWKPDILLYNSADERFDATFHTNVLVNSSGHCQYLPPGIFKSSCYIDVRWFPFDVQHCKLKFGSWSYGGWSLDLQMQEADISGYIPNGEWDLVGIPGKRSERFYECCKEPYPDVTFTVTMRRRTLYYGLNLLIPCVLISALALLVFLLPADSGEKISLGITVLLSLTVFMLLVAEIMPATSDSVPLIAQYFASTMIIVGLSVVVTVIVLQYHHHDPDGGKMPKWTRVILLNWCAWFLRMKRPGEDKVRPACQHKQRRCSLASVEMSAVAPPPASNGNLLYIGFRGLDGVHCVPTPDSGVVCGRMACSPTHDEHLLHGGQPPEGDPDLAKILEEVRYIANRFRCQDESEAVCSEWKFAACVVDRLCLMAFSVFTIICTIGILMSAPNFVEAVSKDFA
Experiment: not given
As to conditions: cited from earlier work.
With `Cc1nccn1CC1CCc2c(c3ccccc3n2C)C1=O` (stereo not drawn) [Ondansetron], the “activity at the α7 nAChR” value is given as “little activity”.

Another assay has as its target α7 nAChR (Rattus norvegicus, UniProt Q05941). The experiment in a line: [3H]-MLA competition binding assay, rat brain membranes. The conditions noted are these: Ki, inhibition of [3H]-MLA binding (3.0 to 4.0 nM), Sprague-Dawley rat whole brain minus cerebellum homogenate, 1 hour at 25° C.
Protocol: Membrane Preparation. Male Sprague-Dawley rats (300-350 g) are sacrificed by decapitation and the brains (whole brain minus cerebellum) are dissected quickly, weighed and homogenized in 9 volumes/g wet weight of ice-cold 0.32 M sucrose using a rotating pestle on setting 50 (10 up and down strokes). The homogenate is centrifuged at 1,000×g for 10 minutes at 4° C. The supernatant is collected and centrifuged at 20,000×g for 20 minutes at 4° C. The resulting pellet is resuspended to a protein concentration of 1-8 mg/mL. Aliquots of 5 mL homogenate are frozen at −80° C. until needed for the assay.
Binding Assay. […] Filters are pre-soaked in 50 mm Tris HCl pH 7.0-0.05% polyethylenimine. The filters are rapidly washed two times with 5 mL aliquots of cold 0.9% saline and then counted for radioactivity by liquid
Data Analysis. […] Hill coefficients were obtained using non-linear regression (GraphPad Prism sigmoidal dose-response with variable slope).
A word on the Ki: it is the equilibrium dissociation constant of an inhibitor or competing ligand from its target. A low value points to tighter binding. Regarding `CC(C)(C)c1ccc(-c2ccc(C(=O)N[C@H]3CN4CCC3CC4)o2)cc1` [Example 140, N-[(3R)-1-azabicyclo[2.2.2]oct-3-yl]-5-(4-tert-butylphenyl)-furan-2-carboxamide 4-methylbenzenesulfonate], the inhibitory constant (Ki) was 35 to 65 nM.
In the case of `O=C(N[C@H]1CN2CCC1CC2)c1ccc(-c2cc3ccccc3s2)o1` [Example 141, N-[(3R)-1-azabicyclo[2.2.2]oct-3-yl]-5-(1-benzothien-2-yl)-furan-2-carboxamide 4-methylbenzenesulfonate], the Ki lay in the range of 260 to 275 nM.
The compound `O=C(N[C@H]1CN2CCC1CC2)c1ccc(-c2cc3ccccc3o2)o1` [Example 146, N-[(3R)-1-azabicyclo[2.2.2]oct-3-yl]-5-(1-benzofuran-2-yl)-furan-2-carboxamide 4-methylbenzenesulfonate] had a Ki of 35 to 140 nM.
In the case of `Nc1ccccc1-c1ccc(C(=O)N[C@H]2CN3CCC2CC3)o1` [Example 147, 5-(2-Aminophenyl)-N-[(3R)-1-azabicyclo[2.2.2]oct-3-yl]-furan-2-carboxamide bis(4-Methylbenzenesulfonate)], the inhibition constant (Ki) was in the range of 2 to 3 nM.
Still for that read-out and setting: the same measure for `O=C(N[C@H]1CN2CCC1CC2)c1ccc(C#Cc2ccccc2)o1` [Example 150, N-[(3R)-1-Azabicyclo[2.2.2]oct-3-yl]-5-(phenylethynyl)-furan-2-carboxamide 4-Methylbenzenesulfonate]: 290 to 330 nM; for `O=C(N[C@H]1CN2CCC1CC2)c1ccc(Oc2ccccc2)o1` [Example 151, N-[(3R)-1-Azabicyclo[2.2.2]oct-3-yl]-5-phenoxy-furan-2-carboxamide 4-Methylbenzenesulfonate]: 225 to 835 nM; for `Cn1c(C(=O)N[C@H]2CN3CCC2CC3)ccc1-c1ccccc1` [Example 152, N-[(3R)-1-Azabicyclo[2.2.2]oct-3-yl]-1-methyl-5-phenyl-1H-pyrrole-2-carboxamide]: 20 to 65 nM.
`O=C(N[C@H]1CN2CCC1CC2)c1ncc(-c2ccccc2)o1` [Example 153, N-[(3R)-1-azabicyclo[2.2.2]oct-3-yl]-5-phenyl-1,3-oxazole-2-carboxamide 4-methylbenzenesulfonate]: the affinity corresponds to a Ki of 1550 nM.
`O=C(N[C@H]1CN2CCC1CC2)c1nc(-c2ccccc2)no1` [Example 154, N-[(3R)-1-azabicyclo[2.2.2]oct-3-yl]-3-phenyl-1,2,4-oxadiazole-5-carboxamide 4-methylbenzenesulfonate] returned a Ki above 1000 nM.
On the same count and under the same terms, the same measure for `O=C(N[C@H]1CN2CCC1CC2)c1cnc(-c2ccccc2)o1` [Example 155, N-[(3R)-1-azabicyclo[2.2.2]oct-3-yl]-2-phenyl-1,3-oxazole-5-carboxamide 4-methylbenzenesulfonate]: 1380 nM.

Values taken from patent publication US6500840B2, “Quinuclidine-substituted heteroaryl moieties for treatment of disease” (Pharmacia & Upjohn Company, priority 2000, dated 2002).
